Assay results published in US8137977B2, “Lipidomic approaches to determining drug response phenotypes in cardiovascular disease” (Children's Hospital & Research Center at Oakland, priority 2007, dated 2012).

Test: Lipid profile changes (lipid classes and fatty acid composition) following simvastatin treatment, high vs low responders, PARC study
Format: in vivo, human
Details: 40 mg, 6 weeks vs baseline, high minus low, ANOVA
Method: We evaluated lipid profiles of 48 subjects selected from the Pharmacogenetics and Risk of Cardiovascular Disease (PARC) study. Subjects were selected from the larger study population of 944 participants (335 African-Americans and 609 whites), with a baseline total serum cholesterol level of 160 to 400 mg/dl. Participants were followed for a total of 6 weeks on simvastatin therapy (40 mg at bedtime). Twenty-four subjects drawn from the top 10% of responders and 24 age-, gender-, and race-matched subjects from the bottom 10% of responders. Response was defined as percent change in LDL cholesterol from baseline to end of treatment. Samples used in this study were collected at baseline and at 6 weeks of therapy.
Data Reporting. Lipids measured included, butyrobetaine, L-carnitine, cholesterol, cholesterol esters (CE), diglycerides (DG), free cholesterol (FC), free fatty acids (FA), lysophosphatidylcholine (LY), phosphatidylcholine (PC), phosphatidylethanolamine (PE) and triglycerides (TG). For CE, DG, FA, LY, PC, PE and TG lipid classes the following fatty acid components were quantified as a proportion of total fatty acids within the lipid class: 14:0, 15:0, 16:0, 18:0, 20:0, 22:0, 24:0, 14:1n5, 16:1n7, 18:1n7, 18:1n9, 20:1n9, 20:3n9, 22:1n9, 24:1n9, 18:2n6, 18:3n6, 20:2n6, 20:3n6, 20:4n6, 22:2n6, 22:4n6, 22:5n6, 18:3n3, 18:4n3, 20:3n3, 20:4n3, 20:5n3, 22:5n3, 22:6n3, 24:6n3, plasmalogen derivatives of 16:0, 18:0, 18:1n7 and 18:1n9, t16:1n7 t18:1n9 t18:2n6. The term “LC” indicates the value shown is the total concentration of the lipid class expressed as nMoles per gram of serum or plasma. Thus, the abbreviation PC18:2n6 indicates the percentage of plasma or serum phosphatidylcholine comprised of linoleic acid (18:2n6), and the term TGLC indicates the absolute amount of triglyceride present in plasma or serum.
Statistical Methods. Before undertaking analysis, the data was cleaned by outlier removal and removal of uninformative metabolites. Outliers were identifies as those observation more than three standard deviations from the mean. Metabolites were determined to be uninformative if over ⅔rds of the observations were below the limit of detection and the pattern of observations falling below this limit was not related to the outcome.
Results of t-tests were used in order to reduce the number of metabolites being modeled.
A simple one-way ANOVA was used to evaluate the difference in lipid changes between high and low responders. From this analysis, contrasts were calculated for the comparison of low to high responders. In addition, an ANCOVA model was used to evaluate the difference in response adjusting for baseline concentrations of the metabolite and the time the samples were run. The outcome was change from baseline to post-treatment, baseline concentration was the covariate, response (high=1, low=0) and group (first=0, second=1) were included as factors, and an interaction term between baseline and response was included.
The column labeled “estimate” is the difference between the change from pre to post in high and low responders (high minus low). The standard error, t-statistic, p-value, and 95% confidence bounds of this estimate are also included (Lower.CI and Upper.CI).

[1] = proportion of fatty acids in lysophosphatidylcholine
[2] = proportion of fatty acids in phosphatidylcholine
[3] = proportion of fatty acids in phosphatidylethanolamine
[4] = proportion of fatty acids in triglyceride

CCC(C)(C)C(=O)O[C@H]1C[C@@H](C)C=C2C=C[C@H](C)[C@H](CC[C@@H]3C[C@@H](O)CC(=O)O3)[C@H]21 [simvastatin]
Estimate, difference between change in high and low responders: DGLC (total diglyceride): 2.4502 nMoles per gram of serum or plasma
Estimate, difference between change in high and low responders: LY14.1n5 [1]: 0.0135 percentage
Estimate, difference between change in high and low responders: LY16.0 [1]: −1.1505 percentage
Estimate, difference between change in high and low responders: LY18.0 [1]: −1.1443 percentage
Estimate, difference between change in high and low responders: LY18.1n9 [1]: 0.3099 percentage
Estimate, difference between change in high and low responders: LY18.3n6 [1]: 0.0774 percentage
Estimate, difference between change in high and low responders: LY20.4n3 [1]: −0.019 percentage
Estimate, difference between change in high and low responders: LY20.4n6 [1]: 0.1269 percentage
Estimate, difference between change in high and low responders: LY20.5n3 [1]: 0.0994 percentage
Estimate, difference between change in high and low responders: PC18.2n6 [2]: −1.5254 percentage
Estimate, difference between change in high and low responders: PC18.3n3 [2]: −0.0498 percentage
Estimate, difference between change in high and low responders: PC20.3n9 [2]: −0.0509 percentage
Estimate, difference between change in high and low responders: PC20.4n6 [2]: 1.1779 percentage
Estimate, difference between change in high and low responders: PC22.6n3 [2]: 0.4153 percentage
Estimate, difference between change in high and low responders: PE14.1n5 [3]: 0.0551 percentage
Estimate, difference between change in high and low responders: PE18.0 [3]: −2.0267 percentage
Estimate, difference between change in high and low responders: PE18.2n6 [3]: −1.036 percentage
Estimate, difference between change in high and low responders: PE20.0 [3]: 0.0189 percentage
Estimate, difference between change in high and low responders: PE20.3n6 [3]: −0.4196 percentage
Estimate, difference between change in high and low responders: PE20.4n3 [3]: −0.0102 percentage
Estimate, difference between change in high and low responders: PE22.5n3 [3]: −0.1266 percentage
Estimate, difference between change in high and low responders: TG18.3n3 [4]: −0.0787 percentage
Estimate, difference between change in high and low responders: TG18.3n6 [4]: 0.1008 percentage
Estimate, difference between change in high and low responders: TG18.4n3 [4]: 0.0378 percentage
Estimate, difference between change in high and low responders: TG20.3n9 [4]: −0.0052 percentage
Estimate, difference between change in high and low responders: TG20.4n3 [4]: −0.0056 percentage
Estimate, difference between change in high and low responders: TG20.4n6 [4]: 0.1005 percentage
Estimate, difference between change in high and low responders: TG22.0 [4]: 0.0184 percentage
Estimate, difference between change in high and low responders: TG22.4n6 [4]: −0.0138 percentage
Estimate, difference between change in high and low responders: TG22.5n6 [4]: −0.0165 percentage
Estimate, difference between change in high and low responders: FA20.0 (proportion of free fatty acids): 0.0159 percentage
Estimate, difference between change in high and low responders: FA20.1n9 (proportion of free fatty acids): 0.0823 percentage
Estimate, difference between change in high and low responders: FA22.1n9 (proportion of free fatty acids): −0.0615 percentage
Estimate, difference between change in high and low responders: FA22.2n6 (proportion of free fatty acids): −0.0088 percentage
